Measured values as given in ChEMBL document CHEMBL1151727, “Citrullination of linear and cyclic altered peptide ligands from myelin basic protein (MBP(87-99)) epitope elicits a Th1 polarized response by T cells isolated from multiple sclerosis patients: implications in triggering disease” (J Med Chem, 2008).
Active and inactive are the calls of the source. Where a SMILES comes first, the peptide text is derived from it. [ ]: non-standard residue; d: D form. Cit = NC(=O)NCCC[C@H](N)C(=O)O

Tests used:
Assay type in all cases: functional, cell-based
PBMC [1] = assay: Induction of IL10 secretion in healthy human PBMC at 10 pg/mL per 10^6 cells after 72 hrs by ELISA
PBMC [2] = assay: Decrease in IL10 secretion in PBMC isolated from multiple sclerosis patient at 10 pg/mL per 10^6 cells after 72 hrs by ELISA; conditions: Homo sapiens
PBMC [3] = assay: Increase in IL2 secretion in PBMC isolated from multiple sclerosis patient at 10 pg/mL per 10^6 cells after 72 hrs by ELISA; conditions: Homo sapiens
PBMC [4] = assay: Induction of IFN-gamma secretion in healthy human PBMC at 10 pg/mL per 10^6 cells after 72 hrs by ELISA
PBMC [5] = assay: Increase in IFN-gamma secretion in PBMC isolated from multiple sclerosis patient at 10 pg/mL per 10^6 cells after 72 hrs by ELISA; conditions: Homo sapiens

Measured: Activity

CC[C@H](C)[C@H](NC(=O)[C@H](CC(N)=O)NC(=O)[C@H](CCCCN)NC(=O)[C@H](Cc1ccccc1)NC(=O)[C@H](Cc1ccccc1)NC(=O)[C@H](Cc1cnc[nH]1)NC(=O)[C@@H](N)C(C)C)C(=O)N[C@H](C(=O)N[C@H](C(=O)N1CCC[C@H]1C(=O)N[C@@H](CCCNC(=N)N)C(=O)N[C@H](C(=O)N1CCC[C@H]1C(=O)O)[C@@H](C)O)[C@@H](C)O)C(C)C
active: PBMC [1] | PBMC [2]

CC[C@H](C)[C@H](NC(=O)[C@H](CC(N)=O)NC(=O)[C@H](CCCNC(N)=O)NC(=O)[C@H](Cc1ccccc1)NC(=O)[C@H](Cc1ccccc1)NC(=O)[C@H](Cc1cnc[nH]1)NC(=O)[C@@H](N)C(C)C)C(=O)N[C@H](C(=O)N[C@H](C(=O)N[C@@H](C)C(=O)N[C@@H](CCCNC(N)=O)C(=O)N[C@H](C(=O)N1CCC[C@H]1C(=O)O)[C@@H](C)O)[C@@H](C)O)C(C)C (H-VHFF[Cit]NIVTA[Cit]TP-OH)
active: all assays above

H-VHFFRNIVTARTP-OH
active: PBMC [1] | PBMC [4]
